Experiment [1] has as its target T1, AHR (Mus musculus, UniProt P30561).
T1 sequence (P30561 1-848 P471L/N533S/M589L): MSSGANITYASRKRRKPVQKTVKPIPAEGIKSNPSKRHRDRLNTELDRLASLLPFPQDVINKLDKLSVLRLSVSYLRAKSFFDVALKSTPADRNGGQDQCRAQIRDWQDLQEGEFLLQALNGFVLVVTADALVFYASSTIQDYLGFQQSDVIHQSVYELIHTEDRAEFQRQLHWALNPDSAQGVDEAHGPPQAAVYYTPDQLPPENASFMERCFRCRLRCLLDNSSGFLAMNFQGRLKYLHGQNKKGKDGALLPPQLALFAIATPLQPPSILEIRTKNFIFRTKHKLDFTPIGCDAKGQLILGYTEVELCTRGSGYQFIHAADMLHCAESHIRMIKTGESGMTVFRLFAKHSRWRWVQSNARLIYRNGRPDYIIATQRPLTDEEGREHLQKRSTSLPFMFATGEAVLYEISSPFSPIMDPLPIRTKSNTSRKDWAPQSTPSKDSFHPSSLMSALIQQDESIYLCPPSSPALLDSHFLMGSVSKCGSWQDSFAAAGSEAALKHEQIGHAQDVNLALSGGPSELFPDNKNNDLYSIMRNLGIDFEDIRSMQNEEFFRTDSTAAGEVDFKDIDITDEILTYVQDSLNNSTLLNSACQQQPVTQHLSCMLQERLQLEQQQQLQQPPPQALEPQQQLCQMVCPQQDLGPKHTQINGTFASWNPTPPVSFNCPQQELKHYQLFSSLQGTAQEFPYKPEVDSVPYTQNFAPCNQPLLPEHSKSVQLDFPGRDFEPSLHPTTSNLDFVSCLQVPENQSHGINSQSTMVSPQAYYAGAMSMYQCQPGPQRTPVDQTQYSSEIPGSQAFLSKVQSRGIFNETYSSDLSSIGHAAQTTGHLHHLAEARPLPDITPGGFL
Briefly: In vitro assay 3: antagonism in mouse cell line (AHR transactivation, firefly luciferase reporter, kynurenic acid prestimulated). The class given is cell-based. Particulars: Hepa 1c1c7 cells, 200 μM kynurenic acid, 20 hours, firefly luciferase reporter, read-out: AHR Antagonism Mouse IC50. The gist of the method: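 Antagonism read as reduced firefly luciferase signal (SteadyGlo) from a stably transfected AHR/DRE reporter in a mouse line prestimulated with kynurenic acid. Data normalized to controls, the full-inhibition control being cells without kynurenic acid; multiple determinations given as average or median values.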
Background: In a reporter assay the amount or activity of a reporter protein is the signal.

Experiment [2] has as its target T2, AHR (Homo sapiens, UniProt P35869).
T2 construct: U87 MG glioblastoma cells (ATCC #HTB-14) endogenously expressing AHR; endogenous in cells; host or cells: U87 MG glioblastoma cells (ATCC #HTB-14)
T2 sequence (P35869 11-848): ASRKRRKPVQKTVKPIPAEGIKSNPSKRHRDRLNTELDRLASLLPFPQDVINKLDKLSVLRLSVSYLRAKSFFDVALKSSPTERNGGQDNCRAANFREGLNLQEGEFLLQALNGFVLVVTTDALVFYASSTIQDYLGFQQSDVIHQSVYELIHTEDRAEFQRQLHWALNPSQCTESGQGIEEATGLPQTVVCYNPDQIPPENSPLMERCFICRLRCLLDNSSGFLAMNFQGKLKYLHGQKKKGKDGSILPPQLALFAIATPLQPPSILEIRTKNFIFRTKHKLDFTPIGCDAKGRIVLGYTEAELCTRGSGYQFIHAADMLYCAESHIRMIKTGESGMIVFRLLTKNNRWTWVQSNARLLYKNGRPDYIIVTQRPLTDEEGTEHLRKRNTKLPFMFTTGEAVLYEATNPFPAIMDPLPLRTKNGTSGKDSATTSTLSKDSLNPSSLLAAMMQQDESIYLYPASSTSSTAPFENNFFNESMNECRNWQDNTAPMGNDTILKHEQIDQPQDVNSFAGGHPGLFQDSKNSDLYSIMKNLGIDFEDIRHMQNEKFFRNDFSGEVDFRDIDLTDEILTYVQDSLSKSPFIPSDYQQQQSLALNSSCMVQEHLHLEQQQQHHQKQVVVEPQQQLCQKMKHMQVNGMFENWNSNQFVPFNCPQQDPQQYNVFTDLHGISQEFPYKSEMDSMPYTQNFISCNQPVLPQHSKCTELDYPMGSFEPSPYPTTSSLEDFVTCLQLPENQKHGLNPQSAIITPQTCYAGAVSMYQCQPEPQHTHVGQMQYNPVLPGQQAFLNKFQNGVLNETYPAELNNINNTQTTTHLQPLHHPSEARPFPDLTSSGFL
Briefly: In vitro assay 1: antagonism in human cell line (AHR transactivation, firefly luciferase reporter, kynurenic acid prestimulated). Particulars: AHR Antagonism Human IC50 [M], firefly luciferase reporter. The experiment is classed as cell-based. The gist of the method: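 Antagonism is measured against kynurenic acid prestimulation in U87 MG glioblastoma cells carrying stable DRE-luciferase and Renilla reporters. Positive inhibition control: 150 μM kynurenic acid with 5 μM staurosporine. Values are normalized to controls; repeats are averaged or given as medians.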

Several values for one entry are separate records, joined by “and”; a condition that tells them apart may be missing. Equal values may be shown once. Some results are limits rather than exact numbers.

Take `COc1ccc(-c2nc3c4cccc(Br)c4nc(N[C@H](C)C(=O)NCCCN(C)C)n3n2)cc1` [Example 809, N^2-[7-bromo-2-(4-methoxyphenyl)[1,2,4]triazolo[1,5-c]quinazolin-5-yl]-N-[3-(dimethylamino)propyl]-D-alaninamide]: the IC50 on AHR [1] turned out to be 9.05 nM; at AHR [2] it was 1.82e-08 M.

On to `CCCNC(=O)[C@H](C)Nc1nc2c(Br)cccc2c2nc(-c3ccc(Cl)cc3OC(F)(F)F)nn12` [Example 811, N^2-{7-bromo-2-[4-chloro-2-(trifluoromethoxy)phenyl][1,2,4]triazolo[1,5-c]quinazolin-5-yl}-N-propyl-L-alaninamide], for which the IC50 at AHR [1] is 43.3 nM; against AHR [2] it was > 5.71e-06 M and 4.65e-06 M and > 2e-06 M.

`CCCNC(=O)[C@@H](CC)Nc1nc2c(Br)cccc2c2nc(-c3ccc(Cl)cc3OC(F)(F)F)nn12` [Example 812, (2R)-2-({7-bromo-2-[4-chloro-2-(trifluoromethoxy)phenyl][1,2,4]triazolo[1,5-c]quinazolin-5-yl}amino)-N-propylbutanamide]: the IC50 at AHR [1] was 2.47 nM; against AHR [2] it was 3.57e-09 M.

As to `CCCCNC(=O)[C@H](CC)Nc1nc2c(Br)cccc2c2nc(-c3ccc(Cl)cc3OC(F)(F)F)nn12` [Example 813, (2S)-2-({7-bromo-2-[4-chloro-2-(trifluoromethoxy)phenyl][1,2,4]triazolo[1,5-c]quinazolin-5-yl}amino)-N-butylbutanamide], the IC50 is 1920 nM and > 2000 nM on AHR [1]; over 2e-06 M at AHR [2].

As for `CCCCNC(=O)[C@@H](CC)Nc1nc2c(Br)cccc2c2nc(-c3ccc(Cl)cc3OC(F)(F)F)nn12` [Example 814, (2R)-2-({7-bromo-2-[4-chloro-2-(trifluoromethoxy)phenyl][1,2,4]triazolo[1,5-c]quinazolin-5-yl}amino)-N-butylbutanamide], the values for the half-maximal inhibitory concentration (IC50) on AHR [1] and on AHR [2] were 11 nM and 2.5e-08 M, respectively.

`Cc1nn(C)cc1-c1nc2c3cccc(Br)c3nc(N[C@@H]3CCCCNC3=O)n2n1` [Example 815, (3R)-3-{[7-bromo-2-(1,3-dimethyl-1H-pyrazol-4-yl)[1,2,4]triazolo[1,5-c]quinazolin-5-yl]amino}azepan-2-one]: the IC50 was found to be 1.6 nM on AHR [1] and 2.78e-10 M at AHR [2].

As for `O=C1NCCCC[C@H]1Nc1nc2c(Cl)cccc2c2nc(-c3cnn(C4CC4)c3)nn12` [Example 816, (3R)-3-{[7-chloro-2-(1-cyclopropyl-1H-pyrazol-4-yl)[1,2,4]triazolo[1,5-c]quinazolin-5-yl]amino}azepan-2-one], the IC50 at AHR [1] came to 0.99 nM; on AHR [2] it was 1.05e-09 M.

Regarding `CC(C)n1cc(-c2nc3c4cccc(Cl)c4nc(N[C@@H]4CCCCNC4=O)n3n2)cn1` [Example 817, (3R)-3-({7-chloro-2-[1-(propan-2-yl)-1H-pyrazol-4-yl][1,2,4]triazolo[1,5-c]quinazolin-5-yl}amino)azepan-2-one], the IC50 amounted to 1.94 nM on AHR [1] and 5.24e-10 M at AHR [2].

As for `CCn1cc(-c2nc3c4cccc(Cl)c4nc(N[C@@H]4CCCCNC4=O)n3n2)cn1` [Example 818, (3R)-3-{[7-chloro-2-(1-ethyl-1H-pyrazol-4-yl)[1,2,4]triazolo[1,5-c]quinazolin-5-yl]amino}azepan-2-one], the IC50 on AHR [1] amounted to 2.18 nM; against AHR [2] it was 6.2e-10 M.

With `CCn1cc(-c2nc3c4cccc(Cl)c4nc(N[C@@H]4CCCCNC4=O)n3n2)c(C)n1` [Example 819, (3R)-3-{[7-chloro-2-(1-ethyl-3-methyl-1H-pyrazol-4-yl)[1,2,4]triazolo[1,5-c]quinazolin-5-yl]amino}azepan-2-one], the IC50 at AHR [1] was 0.385 nM; against AHR [2], 2.31e-10 M.

For the compound `CC(C)n1cc(-c2nc3c4cccc(C5CC5)c4nc(N[C@@H]4CCCCNC4=O)n3n2)cn1` [Example 820, (3R)-3-({7-cyclopropyl-2-[1-(propan-2-yl)-1H-pyrazol-4-yl][1,2,4]triazolo[1,5-c]quinazolin-5-yl}amino)azepan-2-one], the IC50 came to 71.5 nM on AHR [1] and 6.33e-09 M on AHR [2].

With `Cc1nn(C)cc1-c1nc2c3cccc(Cl)c3nc(N[C@@H]3CCCCNC3=O)n2n1` [Example 821, (3R)-3-{[7-chloro-2-(1,3-dimethyl-1H-pyrazol-4-yl)[1,2,4]triazolo[1,5-c]quinazolin-5-yl]amino}azepan-2-one], the IC50 on AHR [1] was 0.739 nM; on AHR [2], 2.98e-10 M.

Take `CC(C)n1cc(-c2nc3c4cccc(Br)c4nc(N[C@@H]4CCCCNC4=O)n3n2)cn1` [Example 822, (3R)-3-({7-bromo-2-[1-(propan-2-yl)-1H-pyrazol-4-yl][1,2,4]triazolo[1,5-c]quinazolin-5-yl}amino)azepan-2-one]: the IC50 on AHR [1] is 1.68 nM; against AHR [2], 7.23e-10 M.

Turning to `Cc1c(-c2nc3c4cccc(Br)c4nc(N[C@@H]4CCCCNC4=O)n3n2)cnn1C` [Example 823, (3R)-3-{[7-bromo-2-(1,5-dimethyl-1H-pyrazol-4-yl)[1,2,4]triazolo[1,5-c]quinazolin-5-yl]amino}azepan-2-one], the values for the IC50 on AHR [1] and against AHR [2] were 3.01 nM and 2.13e-09 M, respectively.

Regarding `O=C1NCCCC[C@H]1Nc1nc2c(Br)cccc2c2nc(-c3cnn(C4CCC4)c3)nn12` [Example 824, (3R)-3-{[7-bromo-2-(1-cyclobutyl-1H-pyrazol-4-yl)[1,2,4]triazolo[1,5-c]quinazolin-5-yl]amino}azepan-2-one], the IC50 at AHR [1] is 0.845 nM; at AHR [2], 9.98e-10 M.

For `CCn1cc(-c2nc3c4cccc(Br)c4nc(N[C@@H]4CCCCNC4=O)n3n2)c(C)n1` [Example 825, (3R)-3-{[7-bromo-2-(1-ethyl-3-methyl-1H-pyrazol-4-yl)[1,2,4]triazolo[1,5-c]quinazolin-5-yl]amino}azepan-2-one], the IC50 on AHR [1] was found to be 0.475 nM; against AHR [2], 3.72e-10 M.

Consider `O=C1NCCCC[C@H]1Nc1nc2c(Br)cccc2c2nc(-c3cnn(CC4CC4)c3)nn12` [Example 826, (3R)-3-({7-bromo-2-[1-(cyclopropylmethyl)-1H-pyrazol-4-yl][1,2,4]triazolo[1,5-c]quinazolin-5-yl}amino)azepan-2-one], for which the IC50 on AHR [1] was 2.26 nM; against AHR [2], 1.77e-09 M.

As to `CN(C)c1cccc2c1nc(N[C@@H]1CCCCNC1=O)n1nc(-c3cnn(C)c3)nc21` [Example 828, (3R)-3-{[7-(dimethyalmino)-2-(1-methyl-1H-pyrazol-4-yl)[1,2,4]triazolo[1,5-c]quinazolin-5-yl]amino}azepan-2-one], the IC50 on AHR [1] was 13500 nM; against AHR [2] it was 1.78e-07 M.

With `CCn1cc(-c2nc3c4cccc(Br)c4nc(N[C@@H]4CCCCNC4=O)n3n2)cn1` [Example 831, (3R)-3-{[7-bromo-2-(1-ethyl-1H-pyrazol-4-yl)[1,2,4]triazolo[1,5-c]quinazolin-5-yl]amino}azepan-2-one], the IC50 at AHR [1] was 1.54 nM; on AHR [2], 8.88e-10 M.

For `O=C1NCCCC[C@H]1Nc1nc2c(Br)cccc2c2nc(-c3cnn(CC4CCC4)c3)nn12` [Example 832, (3R)-3-({7-bromo-2-[1-(cyclobutylmethyl)-1H-pyrazol-4-yl][1,2,4]triazolo[1,5-c]quinazolin-5-yl}amino)azepan-2-one], the half-maximal inhibitory concentration (IC50) at AHR [1] came to 5.68 nM; against AHR [2], 2.58e-09 M.

In general, IC50 refers to the point on the concentration scale where inhibition reaches its midpoint.

Values taken from patent US20230113037A1 (Bayer Aktiengesellschaft, priority 2019, published 2023).
